# Data published in patent US20220304952A1, “COMPOSITION COMPRISING METFORMIN HCI, VITAMIN B12 AND AT LEAST ONE FLOW ADDITIVE” (DSM IP ASSETS B.V., priority 2019, published 2022).
# Structures can show the parent of a compound that is named as a salt.
# Columns and labels:
# [1] = Powder flowability: mass flow rate through an orifice (Pharmatest PTG-S4); assay type: physicochemical; details: orifice inner diameter 15 mm; 100 g powder
# Description: The powder flowability was determined with a Pharmatest PTG-S4 automated powder characterization instrument (Pharma Test Apparatebau AG, Hainburg, Germany). This system measures the flow behavior of granules and powders in compliance with the current EP <2.9.36/17> and USP <1174> pharmacopoeia as well as with the international ISO 4324 standards.
# Mass flow rate (g/min) was determined via the method of flow through an orifice. Flow rate is interpreted as the time needed for a specified amount of powder (100 g) to flow through an orifice with different diameters. A free-flowing powder should be able to flow through the whole set of diameters 5, 7, 9, 10, and 15 mm. The plot of flow rate vs. orifice diameter is referred as flow curve. Three parallel measurements were performed to determine the flow rate.
# Flowability of the two mixtures was then tested as described in Example 1.
# [2] = Vitamin B12 content uniformity (RSD from HPLC assays); assay type: physicochemical; details: tablets with 549.9 mg calcium phosphate anhydrous and 0.0078 mg vitamin B12
# Description: “Uniformity of content” ensures that a consistent dose of an active pharmaceutical ingredient (e.g. of vitamin B12) is maintained in each portion of a composition, even if the composition is subdivided into a large number of very small portions. By way of example, when controlling the quality of e.g. capsules or tablets, uniformity of content is determined. To do so, multiple e.g. capsules or tablets are selected at random and a suitable analytical method is applied to assay the individual content of the active pharmaceutical ingredient in each capsule or tablet. The relative standard deviation (RSD) can then be calculated. The lower the RSD, the better the uniformity of content. An RSD of more than […] is clearly unacceptable. The term “uniformity of vitamin B12 content” is used when multiple solid pharmaceutical dosage forms are selected at random and a suitable analytical method is applied to assay the individual content of vitamin B12 in each solid pharmaceutical dosage form.
# Tablets were compressed with a Korsch XL 100 rotary tableting machine (Korsch A G, Berlin, Germany) using an oblong punch of 22×9 mm and compression force of 20 kN.
# Vitamin B12 content uniformity was then evaluated via the standard deviation RSD (%) calculated from 10 individual assay determinations (HPLC analysis conducted by Eurofins®, Germany).
Molecule,"Flow rate, measured with orifice having the indicated inner diameter [1]",vitamin B12 content uniformity rating [2]
CN(C)C(=N)N=C(N)N [metformin HCl],very low,
cyanocobalamin [vitamin B12 crystals],,extremely poor
